pIC50: −log10 of the molar value. Like-named read-outs stand apart in the source and are kept apart here.
Target: bee venom phospholipase A2 (Apis mellifera, UniProt P00630)
Experiment: biochemical
Assay type: biochemical
Conditions: read-out: 50% inhibition (IC50) of bee venom phospholipase A2

Chain of bee venom phospholipase A2 (P00630 34-167 limits assumed): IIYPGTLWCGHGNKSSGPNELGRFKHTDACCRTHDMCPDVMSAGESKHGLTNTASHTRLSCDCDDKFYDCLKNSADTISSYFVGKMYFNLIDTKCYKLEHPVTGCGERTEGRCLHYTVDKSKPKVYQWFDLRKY

SMILES	pIC50 (pH 7.4)	pIC50
CC(=O)OC(CCCCCCCCCCCCC(OC(C)=O)C1=CC(=O)OC1O)C1=CC(=O)OC1O (stereo not shown) [Compound 1, 1,14-Diacetoxy-1,14-bis[5-hydroxy-2(5H)-4-furanoyl]tetradecane]	8.00	
O=C1C=C(C(CCCCCCCCCCC(OC(=O)Nc2ccccc2)C2=CC(=O)OC2O)OC(=O)Nc2ccccc2)C(O)O1 (stereo not shown) [Compound 2, 1,12-Di(N-phenylcarbamoyl)-1,12-bis[5-hydroxy-2(5H)-furano-4-yl] dodecane]	7.52	
CC(C)(C)C(=O)OC(CCCCCCCCCCCCC(OC(=O)C(C)(C)C)C1=CC(=O)OC1O)C1=CC(=O)OC1O (stereo not shown) [Compound 3, 1,14-Di(tert-butanoyloxy)-1,14-bis[5-hydroxy-2(5H)-furano-4-yl]tetradecane]	7.70	
CC(C)(C)C(=O)OC(CCCCCCCCCCCCC(OC(=O)C(C)(C)C)C1=CC(=O)OC1OC(=O)Nc1ccccc1)C1=CC(=O)OC1OC(=O)Nc1ccccc1 (stereo not shown) [Compound 4, 1,14-Di-(tert-butanoyloxy)-1,14-bis[5-(N-phenylcarbamoyl)-2(5H)-furano-4-yl]-tetradecane]		< 6.00
